Results published in patent US11530244B2, “Cyclic polypeptides for PCSK9 inhibition” (priority 2018, dated 2022).
Starred links: 1 amine or outer side, 2 acyl side, 3 side chain; linkers in the order of their positions; H or OH if unused. Positions of bridges follow the written chain, without caps; N, C: chain ends. Non-standard residues stand in square brackets, D forms with d. Residues, ends and D or L forms follow the SMILES beside them. Groups on a side chain read outwards from the residue. *: point of attachment. Naphthalene(2,6-diCH2) = c1cc2cc(C[*:2])ccc2cc1C[*:1]; Pro(trans-4-cHex) = O=C(O)[C@@H]1C[C@@H](C2CCCCC2)CN1; X52 = O=C([C@H](Cc1cc2cc(F)ccc2[nH]1)N[*:1])[*:2]; Trp(5-F) = N[C@@H](Cc1c[nH]c2ccc(F)cc12)C(=O)O; Pro(3R-Ph) = O=C(O)[C@H]1NCC[C@@H]1c1ccccc1; NMePhe(4-F) = CN[C@@H](Cc1ccc(F)cc1)C(=O)O; X3 = O=C(CCSCc1cc(F)cc(CSCCN[*:1])c1)[*:2]; mXylylene(5-F) = Fc1cc(C[*:1])cc(C[*:2])c1; Phe(4-CN) = N#Cc1ccc(C[C@H](N)C(=O)O)cc1; αMeW = C[C@](N)(Cc1c[nH]c2ccccc12)C(=O)O; X4 = O=C(CCSCc1cccc(CSCCN[*:1])c1)[*:2]; γGlu = O=C(O)[C@H](CCC(=O)[*:2])N[*:1]; mXylylene = c1cc(C[*:1])cc(C[*:2])c1; Palmitoyl = CCCCCCCCCCCCCCCC(=O)*; αMeP = C[C@@]1(C(=O)O)CCCN1; NMeS = CN[C@@H](CO)C(=O)O; Aze = O=C(O)[C@@H]1CCN1; Dab = NCC[C@H](N)C(=O)O; Nva = CCC[C@H](N)C(=O)O; Aib = CC(C)(N)C(=O)O; βAla = NCCC(=O)O; Mpa = O=C(O)CCS

Each compound was assayed against human PCSK9 / human LDLR EGFa domain interaction (Homo sapiens (Human), UniProt Q8NBP7) (assay: TR-FRET assay of inhibition of the PCSK9-LDLR protein-protein interaction). Conditions: TR-FRET, 20 nM human PCSK9, 20 nM human LDLR EGFa domain, 2 hours room temperature; read-out: IC50.
human PCSK9 / human LDLR EGFa domain interaction, sequence (Q8NBP7 153-692): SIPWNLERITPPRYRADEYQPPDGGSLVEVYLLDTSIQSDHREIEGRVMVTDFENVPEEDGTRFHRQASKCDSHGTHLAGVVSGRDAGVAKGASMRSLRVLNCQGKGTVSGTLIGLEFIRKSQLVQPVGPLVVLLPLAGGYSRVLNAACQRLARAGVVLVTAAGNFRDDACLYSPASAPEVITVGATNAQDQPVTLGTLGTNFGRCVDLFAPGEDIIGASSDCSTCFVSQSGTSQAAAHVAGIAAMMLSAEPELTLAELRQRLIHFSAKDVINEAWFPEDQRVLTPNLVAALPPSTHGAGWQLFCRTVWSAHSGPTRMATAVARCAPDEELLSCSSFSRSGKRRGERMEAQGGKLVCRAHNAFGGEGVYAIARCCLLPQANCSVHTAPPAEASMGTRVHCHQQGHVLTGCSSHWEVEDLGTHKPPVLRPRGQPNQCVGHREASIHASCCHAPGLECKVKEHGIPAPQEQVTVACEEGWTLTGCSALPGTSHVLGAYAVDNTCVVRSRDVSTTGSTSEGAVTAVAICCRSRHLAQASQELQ
human PCSK9 / human LDLR EGFa domain interaction, sequence (Q8NBP7 31-152 partner): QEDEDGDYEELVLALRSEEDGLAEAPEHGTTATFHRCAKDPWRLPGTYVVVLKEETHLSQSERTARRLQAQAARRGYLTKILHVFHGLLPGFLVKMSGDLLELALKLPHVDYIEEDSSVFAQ
Format: binding
Summary of the method: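 Readout is the TR-FRET signal between europium anti-6×His on his-tagged LDLR EGFa domain and Ulight streptavidin on biotinylated PCSK9, both proteins at 20 nM and both detection reagents at 5 nM. Incubation lasted 2 hours at room temperature; compounds were run in dose-response with a 4-parameter fit.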
Work on `C[C@H]1NC(=O)[C@H](CCCCN)NC(=O)CCSCc2cccc(c2)CSCCNC(=O)[C@]2(C)CCCN2C(=O)[C@H](Cc2ccc(C#N)cc2)NC(=O)[C@H](Cc2c[nH]cn2)NC(=O)[C@H](CC(=O)O)NC(=O)[C@H](Cc2c[nH]c3ccc(F)cc23)NC(=O)[C@H](Cc2c[nH]c3ccc(F)cc23)NC1=O` [Compound 300] (cyclo(DH[Phe(4-CN)][αMeP][X4]K[dA][Trp(5-F)][Trp(5-F)])) yielded an IC50 of 0.1 to 1 µM.
In the case of `CCCCCCCCCCCCCCCC(=O)N[C@@H](CCC(=O)N[C@@H](CCC(=O)NCC[C@H](NC(=O)[C@@H]1CSCc2cccc(c2)CSCCC(=O)N[C@@H](CCCCN)C(=O)NCC(=O)N[C@@H](Cc2c[nH]c3ccc(F)cc23)C(=O)N[C@@H](Cc2c[nH]c3ccc(F)cc23)C(=O)N[C@@H](CC(=O)O)C(=O)N[C@@H](Cc2c[nH]cn2)C(=O)N[C@@H](Cc2ccc(O)cc2)C(=O)N2CCC[C@@]2(C)C(=O)N1)C(N)=O)C(=O)O)C(=O)O` [Compound 284] ([Mpa]KG[Trp(5-F)][Trp(5-F)]DHY[αMeP]C[Dab]([γGlu-γGlu-Palmitoyl])-NH2; linker 1-10 via mXylylene), the IC50 is reported as 21 to 50 µM.
For `NCCCC[C@@H]1NC(=O)CCCn2cc(nn2)CC[C@@H](C(N)=O)NC(=O)[C@@H]2CCCN2C(=O)[C@H](Cc2ccc(O)cc2)NC(=O)[C@H](Cc2c[nH]cn2)NC(=O)[C@H](CC(=O)O)NC(=O)[C@H](Cc2c[nH]c3ccc(F)cc23)NC(=O)[C@H](Cc2c[nH]c3ccc(F)cc23)NC(=O)CNC1=O` [Compound 186], the IC50 was 0.1 to 1 µM.
In the case of `C[C@@]1(Cc2c[nH]c3ccccc23)NC(=O)CNC(=O)[C@H](CCCCN)NC(=O)CCSCc2cccc(c2)CSC[C@@H](C(N)=O)NC(=O)[C@@H]2CCCN2C(=O)[C@H](Cc2ccc(O)cc2)NC(=O)[C@H](Cc2c[nH]cn2)NC(=O)[C@H](CC(=O)O)NC(=O)[C@H](Cc2c[nH]c3ccc(F)cc23)NC1=O` [Compound 212] ([Mpa]KG[αMeW][Trp(5-F)]DHYPC-NH2; linker 1-10 via mXylylene), the IC50 is reported as 0.1 to 1 µM.
In the case of `C[C@@]12CCCN1C(=O)[C@H](Cc1ccc(O)cc1)NC(=O)[C@H](Cc1cnc[nH]1)NC(=O)[C@H](CC(=O)O)NC(=O)[C@H](Cc1c[nH]c3ccc(F)cc13)NC(=O)[C@H](Cc1c[nH]c3ccc(F)cc13)NC(=O)CNC(=O)[C@H](CCCCN)NC(=O)CCSCc1cc(F)cc(c1)CSC[C@@H](C(N)=O)NC2=O` [Compound 287] ([Mpa]KG[Trp(5-F)][Trp(5-F)]DHY[αMeP]C-NH2; linker 1-10 via mXylylene(5-F)), the IC50 is reported as 21 to 50 µM.
With `COc1ccc(C[C@@H]2NC(=O)CCNC(=O)[C@@H]3CCCN3C(=O)[C@H](Cc3c[nH]c4ccc(F)cc34)NC(=O)[C@H](Cc3cc4cc(F)ccc4[nH]3)NC(=O)[C@@H](C)NC(=O)[C@H](CCCCN)NC(=O)CCSCc3cccc(c3)CSCCNC(=O)[C@]3(C)CCCN3C2=O)cc1` [Compound 003] (cyclo(K[dA][X52][Trp(5-F)]P[βAla]Y(Me)[αMeP][X4])) the IC50 was 1 to 12.1 µM.
Compound `C[C@H]1NC(=O)[C@H](CCCCN)NC(=O)CCSCc2cc(F)cc(c2)CSCCNC(=O)[C@]2(C)CCCN2C(=O)[C@H](Cc2ccc(O)cc2)NC(=O)[C@H](Cc2cnc[nH]2)NC(=O)[C@H](CC(=O)O)NC(=O)[C@H](Cc2c[nH]c3ccc(F)cc23)NC(=O)[C@H](Cc2c[nH]c3ccc(F)cc23)NC1=O` [Compound 289] (cyclo(DHY[αMeP][X3]K[dA][Trp(5-F)][Trp(5-F)])) has an IC50 of 21 to 50 µM.
`C[C@@H]1NC(=O)[C@@H]2CCN2C(=O)[C@H](Cc2c[nH]c3ccc(F)cc23)NC(=O)[C@H](Cc2c[nH]c3ccc(F)cc23)NC(=O)[C@@H](C)NC(=O)[C@H](CCCCN)NC(=O)CCSCc2cccc(c2)CSCCNC(=O)[C@]2(C)CCCN2C(=O)[C@H](Cc2ccc(O)cc2)NC1=O` [Compound 002] (cyclo(AY[αMeP][X4]K[dA][Trp(5-F)][Trp(5-F)][Aze])) was tested, and the IC50 was 21 to 50 µM.
For `C[C@H]1NC(=O)[C@H](Cc2ccc(O)cc2)NC(=O)[C@H](Cc2cnc[nH]2)NC(=O)[C@H](CC(=O)O)NC(=O)[C@H](Cc2c[nH]c3ccc(F)cc23)NC(=O)[C@H](Cc2c[nH]c3ccc(F)cc23)NC(=O)CNC(=O)[C@H](CCCCN)NC(=O)CCSCc2cccc(c2)CSC[C@@H](C(N)=O)NC1=O` [Compound 320] ([Mpa]KG[Trp(5-F)][Trp(5-F)]DHY[dA]C-NH2; linker 1-10 via mXylylene), the IC50 was 21 to 50 µM.
`CCC[C@H](NC(C)=O)C(=O)N(C)[C@@H](CO)C(=O)N[C@@H](CCCCN)C(=O)N[C@H]1CSCc2cccc(c2)CSC[C@@H](C(N)=O)NC(=O)[C@@H]2CCCN2C(=O)[C@H](Cc2ccc(O)cc2)NC(=O)[C@H](Cc2c[nH]cn2)NC(=O)[C@H](CC(=O)O)NC(=O)[C@H](Cc2c[nH]c3ccc(F)cc23)NC(=O)[C@H](Cc2c[nH]c3ccc(F)cc23)NC(=O)CNC(=O)[C@H](CCCCN)NC1=O` [Compound 145] (Ac-[Nva][NMeS]KCKG[Trp(5-F)][Trp(5-F)]DHYPC-NH2; linker 4-13 via mXylylene) gave an IC50 of 1 to 12.1 µM.
For `CC(=O)N(C)[C@@H](Cc1ccc(F)cc1)C(=O)N[C@H]1CSCc2cccc(c2)CSC[C@@H](C(N)=O)NC(=O)[C@@H]2CCCN2C(=O)[C@H](Cc2ccc(O)cc2)NC(=O)[C@H](Cc2cnc[nH]2)NC(=O)[C@H](CC(=O)O)NC(=O)[C@H](Cc2c[nH]c3ccc(F)cc23)NC(=O)[C@H](Cc2c[nH]c3ccc(F)cc23)NC(=O)CNC(=O)[C@H](CCCCN)NC1=O` [Compound 147] (Ac-[NMePhe(4-F)]CKG[Trp(5-F)][Trp(5-F)]DHYPC-NH2; linker 2-11 via mXylylene), the IC50 was 0.1 to 1 µM.
Compound `NCCCC[C@@H]1NC(=O)CCSCc2cccc(c2)CSC[C@@H](C(N)=O)NC(=O)[C@@H]2C[C@@H](C3CCCCC3)CN2C(=O)[C@H](Cc2ccc(O)cc2)NC(=O)[C@H](Cc2c[nH]cn2)NC(=O)[C@H](CC(=O)O)NC(=O)[C@H](Cc2c[nH]c3ccc(F)cc23)NC(=O)[C@H](Cc2c[nH]c3ccc(F)cc23)NC(=O)CNC1=O` [Compound 304] ([Mpa]KG[Trp(5-F)][Trp(5-F)]DHY[Pro(trans-4-cHex)]C-NH2; linker 1-10 via mXylylene) has an IC50 of 21 to 50 µM.
For `NCCCC[C@@H]1NC(=O)CCSCc2cccc(c2)CSC[C@@H](C(N)=O)NC(=O)[C@@H]2CCCN2C(=O)[C@@H]2[C@@H](c3ccccc3)CCN2C(=O)[C@H](Cc2c[nH]cn2)NC(=O)[C@H](CC(=O)O)NC(=O)[C@H](Cc2c[nH]c3ccc(F)cc23)NC(=O)[C@H](Cc2c[nH]c3ccc(F)cc23)NC(=O)CNC1=O` [Compound 326] ([Mpa]KG[Trp(5-F)][Trp(5-F)]DH[Pro(3R-Ph)]PC-NH2; linker 1-10 via mXylylene), the IC50 was 1 to 12.1 µM.
Work on `CC1(C)NC(=O)[C@H](Cc2ccc(O)cc2)NC(=O)[C@H](Cc2cnc[nH]2)NC(=O)[C@H](CC(=O)O)NC(=O)[C@H](Cc2c[nH]c3ccc(F)cc23)NC(=O)[C@H](Cc2c[nH]c3ccc(F)cc23)NC(=O)CNC(=O)[C@H](CCCCN)NC(=O)CCSCc2cccc(c2)CSC[C@@H](C(N)=O)NC1=O` [Compound 218] ([Mpa]KG[Trp(5-F)][Trp(5-F)]DHY[Aib]C-NH2; linker 1-10 via mXylylene) yielded an IC50 of 0.1 to 1 µM.
Compound `NCCCC[C@@H]1NC(=O)CCSCc2ccc3cc(ccc3c2)CSC[C@@H](C(N)=O)NC(=O)[C@@H]2CCCN2C(=O)[C@H](Cc2ccc(O)cc2)NC(=O)[C@H](Cc2c[nH]cn2)NC(=O)[C@H](CC(=O)O)NC(=O)[C@H](Cc2c[nH]c3ccc(F)cc23)NC(=O)[C@H](Cc2c[nH]c3ccc(F)cc23)NC(=O)CNC1=O` [Compound 203] ([Mpa]KG[Trp(5-F)][Trp(5-F)]DHYPC-NH2; linker 1-10 via Naphthalene(2,6-diCH2)) has an IC50 of 1 to 12.1 µM.
